Test results from patent US20240158466A1, “PEGYLATED P-SELECTIN INHIBITORS” (Beth Israel Deaconess Medical Center, Inc., priority 2021, published 2024).
Each block holds one molecule with its values, some of them ahead of it.

Columns and labels:
[1] = molecular target: P-selectin on activated human platelets (human) (UniProt P16109); test: cell-based or functional assay
[2] = molecular target: P-selectin on activated mouse platelets (mouse) (UniProt Q01102); test: cell-based or functional assay
P-selectin [3] = molecular target: T1, P-selectin (Homo sapiens, UniProt P16109); settings: synthetic P-selectin antagonists, literature refs 48,49; cited from earlier work
T1 sequence (P16109 42-830): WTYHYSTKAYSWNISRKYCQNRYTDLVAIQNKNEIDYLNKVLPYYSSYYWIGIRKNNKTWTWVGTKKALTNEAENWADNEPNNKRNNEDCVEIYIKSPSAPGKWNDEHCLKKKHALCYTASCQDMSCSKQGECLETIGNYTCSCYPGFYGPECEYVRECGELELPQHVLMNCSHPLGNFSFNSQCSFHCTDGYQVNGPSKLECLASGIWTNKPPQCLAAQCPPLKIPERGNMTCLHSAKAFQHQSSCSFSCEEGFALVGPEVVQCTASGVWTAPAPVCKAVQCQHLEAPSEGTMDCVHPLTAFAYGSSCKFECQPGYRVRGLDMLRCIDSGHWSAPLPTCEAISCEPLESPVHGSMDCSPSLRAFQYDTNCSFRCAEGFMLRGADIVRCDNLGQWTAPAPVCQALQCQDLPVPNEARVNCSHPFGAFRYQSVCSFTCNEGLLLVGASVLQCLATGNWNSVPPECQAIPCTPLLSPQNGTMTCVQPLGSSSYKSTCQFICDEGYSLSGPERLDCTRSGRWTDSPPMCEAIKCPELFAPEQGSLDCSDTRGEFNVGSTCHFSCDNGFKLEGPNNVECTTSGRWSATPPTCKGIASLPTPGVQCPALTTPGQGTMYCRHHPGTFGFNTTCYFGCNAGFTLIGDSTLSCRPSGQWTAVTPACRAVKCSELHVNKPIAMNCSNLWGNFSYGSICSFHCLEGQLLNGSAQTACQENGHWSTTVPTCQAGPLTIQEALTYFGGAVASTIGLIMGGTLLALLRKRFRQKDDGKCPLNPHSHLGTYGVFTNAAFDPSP

venous thrombus = test: Murine model of non-occlusive venous thrombosis (electrolytic injury of inferior vena cava); format: in vivo, C57BL/6 mice
Experimental: Enoxaparin was administered subcutaneously (6 mg/kg) 4 hours prior and 24 hours after electrolytic injury as a clinically relevant control. […] Venous side branches were ligated or cauterized, while posterior branches were left patent. A 25-gauge stainless steel needle, attached to a silver-coated copper wire was inserted into the exposed caudal vena cava and positioned against the anterior wall (anode). A second wire was implanted subcutaneously to complete the circuit (cathode) and a 250 μAmps current applied for 15 min. Subsequently, the needle was removed and a cotton swab held in gentle contact with the puncture site to prevent bleeding. The vena cava and associated thrombus, immediately below the renal veins to just above the bifurcation, was excised 48 hours after injury for determination of wet thrombus weight and histological examination. Specimens were fixed overnight in 10% neutral buffered formalin, processed for paraffin embedding, and 5 μm sections stained with hematoxylin and eosin (H&E) or antibodies specific to neutrophils (Ly-6G, BD Biosciences) and monocytes (CD68, Abeam, Cambridge, MA). The circumference of the vein wall was imaged at 20× magnification and leukocyte infiltration was quantified in 3 representative animals/group, 5 to 10 sections/tissue sample.

hemostasis = test: Tail vein transection bleeding time; format: in vivo, mouse; settings: PG-6 8 μmol/kg or enoxaparin (LMWH) 6 mg/kg intravenous, 5 min prior to transection
Experimental: Hemostasis was assessed using a tail vein transection model to determine bleeding time.^63 Mice were anesthetized with ketamine and xylazine by intraperitoneal injection and placed on a warming mat at 37° C. Sterile saline, enoxaparin (6 mg/kg), or PG-6 in 125 μL of sterile saline was injected into the penile vein. Five minutes after administration of test compound, the lateral tail vein was transected with a number 11 scalpel blade at a tail width of 2.3 mm and immediately submerged in 37° C. phosphate buffered saline. The bleeding time was determined at that instant when bleeding had ceased for 30 seconds. Animals were excluded if arterial bleeding was present.

vein wall injury = settings: rats; cited from earlier work
vein recanalization = settings: primate models; cited from earlier work
[4] = tested on: platelet-monocyte aggregation; settings: humans; cited from earlier work
thrombus = settings: mice; cited from earlier work
[5] = high affinity biologics; cited from earlier work
P-selectin [6] = molecular target: T1, P-selectin; settings: cited from earlier work

P-selectin on activated mouse platelets (mouse), sequence (Q01102 42-768): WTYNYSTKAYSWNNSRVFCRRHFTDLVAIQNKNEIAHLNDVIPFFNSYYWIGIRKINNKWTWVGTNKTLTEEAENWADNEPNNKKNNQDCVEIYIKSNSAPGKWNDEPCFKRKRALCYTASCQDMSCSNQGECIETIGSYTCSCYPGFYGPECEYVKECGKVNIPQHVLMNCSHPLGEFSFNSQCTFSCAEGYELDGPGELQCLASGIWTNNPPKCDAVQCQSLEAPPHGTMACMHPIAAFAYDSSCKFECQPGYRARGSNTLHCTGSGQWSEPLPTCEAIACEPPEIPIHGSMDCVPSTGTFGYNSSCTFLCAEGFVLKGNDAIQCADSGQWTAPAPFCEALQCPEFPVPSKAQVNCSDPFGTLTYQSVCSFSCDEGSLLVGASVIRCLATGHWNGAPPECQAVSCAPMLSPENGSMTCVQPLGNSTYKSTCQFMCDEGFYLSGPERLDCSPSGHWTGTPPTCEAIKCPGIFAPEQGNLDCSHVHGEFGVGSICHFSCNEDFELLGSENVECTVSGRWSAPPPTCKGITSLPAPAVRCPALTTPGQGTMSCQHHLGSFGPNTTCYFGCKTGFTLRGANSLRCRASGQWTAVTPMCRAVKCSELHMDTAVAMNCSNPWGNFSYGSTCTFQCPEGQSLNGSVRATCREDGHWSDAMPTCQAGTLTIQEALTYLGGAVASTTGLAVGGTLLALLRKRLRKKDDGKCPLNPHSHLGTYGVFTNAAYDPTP

human platelet-monocyte aggregates (flow cytometry, whole blood, PG-6 120 uM) [1]: 29 % reduction
human platelet-neutrophil aggregates (flow cytometry, whole blood, PG-6 120 uM) [1]: 42 % reduction
murine platelet-monocyte aggregates (flow cytometry, whole blood, PG-6 120 uM) [2]: 45 % reduction
murine platelet-neutrophil aggregates (flow cytometry, whole blood, PG-6 120 uM) [2]: 38 % reduction
Molecule: PEG40-GSnP-6 (PG-6) (peptide)

Molecule: C[C@@H]1O[C@@H](O[C@@H]2[C@@H](NC(=O)c3cc(=O)[nH]c(=O)[nH]3)C[C@@H](C(=O)NCCNC(=O)COCCOCC(=O)Nc3cc(S(=O)(=O)O)cc4cc(S(=O)(=O)O)cc(S(=O)(=O)O)c34)C[C@H]2O[C@@H]2O[C@H](CO)[C@H](O)[C@H](O[C@@H](CC3CCCCC3)C(=O)O)[C@H]2OC(=O)c2ccccc2)[C@@H](O)[C@H](O)[C@@H]1O [GMI-1070]
IC50 (P-selectin [3]): 423 µM

tail vein transection bleeding time (hemostasis): prolonged
tail vein transection bleeding time (hemostasis; listed as LMWH): significant increase
Molecule: enoxaparin
thrombus formation / thrombus weight vs saline vehicle (venous thrombus; 48 h after electrolytic injury, PG-6 8 μmol/kg IV, LMWH 6 mg/kg SC): significant reduction
infiltrating CD68+ macrophages in vein wall (venous thrombus; 48 h after thrombus induction): significant reduction
infiltrating Ly6G+ neutrophils in vein wall (venous thrombus; 48 h after thrombus induction): significant reduction

Molecule: O=C(O)c1c(O)c(Cc2ccc(Cl)cc2)nc2c3c(ccc12)CCCC3 [PSI-697]
wall stiffness, neointima formation, extravasation of inflammatory cells (vein wall injury): decreased
vein recanalization (vein recanalization): enhanced
inhibition of platelet-monocyte aggregation in a phase I trial [4]: failed to inhibit
thrombus weight (thrombus): reduced

Molecule: O=C(O)c1c(O)c(C2(c3ccc(Cl)cc3)CC2)nc2c(C(F)(F)F)cccc12 [PSI-421, 2-[1-(4-chlorophenyl)cyclopropyl]-3-hydroxy-8-(trifluoromethyl)quinoline-4-carboxylic acid]
vein recanalization (vein recanalization): enhanced

B1: crizanlizumab: the only approved P-selectin inhibitor, an antibody (antibody, chains of the INN, looked up, V domains shown)
VH: QVQLVQSGAEVKKPGASVKVSCKVSGYTFTSYDINWVRQAPGKGLEWMGWIYPGDGSIKYNEKFKGRVTMTVDKSTDTAYMELSSLRSEDTAVYYCARRGEYGNYEGAMDYWGQGTLVTVSS
VL: DIQMTQSPSSLSASVGDRVTITCKASQSVDYDGHSYMNWYQQKPGKAPKLLIYAASNLESGVPSRFSGSGSGTDFTLTISSLQPEDFATYYCQQSDENPLTFGGGTKVEIK
t1/2 [5]: 10.6 days
Kd for P-selectin (in words) (P-selectin [6]; approved antibody): low nanomolar range

B2: PSGL-1: P-selectin glycoprotein ligand-1, native cognate ligand of P-selectin (protein, UniProt Q14242 42-412, looked up)
P-selectin glycoprotein …: QATEYEYLDYDFLPETEPPEMLRNSTDTTPLTGPGTPESTTVEPAARRSTGLDAGGAVTELTTELANMGNLSTDSAAMEIQTTQPAATEAQTTQPVPTEAQTTPLAATEAQTTRLTATEAQTTPLAATEAQTTPPAATEAQTTQPTGLEAQTTAPAAMEAQTTAPAAMEAQTTPPAAMEAQTTQTTAMEAQTTAPEATEAQTTQPTATEAQTTPLAAMEALSTEPSATEALSMEPTTKRGLFIPFSVSSVTHKGIPMAASNLSVNYPVGAPDHISVKQCLLAILILALVATIFFVCTVVLAVRLSRKGHMYPVRNYSPTEMVCISSLLPDGGEGPSATANGGLSKAKSPGLTPEPREDREGDDLTLHSFLP
Kd (P-selectin [6]; reported values): 0.07 to 0.3 µM
